{
  "source": "patent US9636427B2",
  "about": "“Process for preparing a pharmaceutical formulation of contrast agents” (GUERBET, priority 2008, dated 2017)",
  "data": [
    {"assay": "not given", "settings": "values from table 1 of U.S. Pat. No. 7,385,041; cited from earlier work", "units": {"Letal dose (LD 50)": "mmol/kg"}, "values": [
      {"smiles": "O=C([O-])CN1CCNCCN(CC(=O)[O-])CCN(CC(=O)[O-])CC1.O=C([O-])CN1CCNCCN(CC(=O)[O-])CCN(CC(=O)[O-])CC1.[Ca+2].[Ca+2].[Ca+2]", "note": "[Ca[Ca-DO3A]2.]", "Letal dose (LD 50)": 1.6},
      {"smiles": "CC(O)CN1CCN(CC(=O)[O-])CCN(CC(=O)[O-])CCN(CC(=O)[O-])CC1.CC(O)CN1CCN(CC(=O)[O-])CCN(CC(=O)[O-])CCN(CC(=O)[O-])CC1.[Ca+2].[Ca+2].[Ca+2]", "note": "(stereo not drawn) [Ca[Ca-HPDO3A]2]", "Letal dose (LD 50)": 1.3},
      {"smiles": "O=C(O)CN1CCNCCN(CC(=O)O)CCN(CC(=O)O)CC1", "note": "[DO3A]", "Letal dose (LD 50)": 0.12},
      {"smiles": "O=C(O)CN1CCN(CC(=O)O)CCN(CC(=O)O)CCN(CC(=O)O)CC1", "note": "[DOTA, 1,4,7,10-Tetraazacyclododecane-N,N′,N″,N″′-tetraacetic acid]", "Letal dose (LD 50)": 0.18},
      {"smiles": "O=C([O-])CN1CCN(CC(=O)[O-])CCN(CC(=O)O)CCN(CC(=O)[O-])CC1.[Gd+3]", "note": "[DOTA-Gd]", "Letal dose (LD 50)": 14},
      {"smiles": "CC(O)CN1CCN(CC(=O)[O-])CCN(CC(=O)[O-])CCN(CC(=O)[O-])CC1.[Gd+3]", "note": "(stereo not drawn) [HP-DO3A-Gd]", "Letal dose (LD 50)": 12},
      {"smiles": "CC(O)CN1CCN(CC(=O)O)CCN(CC(=O)O)CCN(CC(=O)O)CC1", "note": "(stereo not drawn) [HP-DO3A]", "Letal dose (LD 50)": 0.11},
      {"smiles": "O=C([O-])CN1CCN(CC(=O)[O-])CCN(CC(=O)[O-])CCN(CC(=O)[O-])CC1.[Ca+2].[Na+].[Na+]", "note": "[Na2 [Ca-DOTA]]", "Letal dose (LD 50)": ">7"}
    ]},
    {"assay": "Lethal dose (LD50) of free macrocyclic chelates, excipients X[X',L] and Gd chelates, table 1 of U.S. Pat. No. 7,385,041", "settings": "times better LD50 than free DOTA", "values": [
      {"smiles": "O=C([O-])CN1CCN(CC(=O)[O-])CCN(CC(=O)[O-])CCN(CC(=O)[O-])CC1.[Ca+2].[Na+].[Na+]", "note": "[Na2 [Ca-DOTA]]", "LD50 of Na2[Ca-DOTA] relative to free DOTA": "at least 40 times"}
    ]}
  ]
}
